Test results reported in ChEMBL document CHEMBL1201862, “PubChem BioAssay data set” (2004).
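Following 48 hours of exposure in 96-well plates, responses at five concentrations were used to interpolate endpoints linearly. GI50 = concentration required for 50% inhibition of growth.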 The source made the active and inactive calls. Cut-off read from the data, not from the text of the source: active = GI50 up to about 1.1 µM and inactive = higher.

How the values were obtained:
Test in all cases: inhibition of tumour cell growth, NCI panel, 48 h
[1] = system: DU-145
[2] = system: ACHN
[3] = system: HL-60
[4] = system: M19-MEL
[5] = system: OVCAR-3
[6] = system: OVCAR-5
[7] = system: PC-3
[8] = system: NCI-H522
[9] = system: T47D
[10] = system: SK-MEL-28
[11] = system: U-251
[12] = system: LOX IMVI
[13] = system: NCI-H460
[14] = system: SK-MEL-2
[15] = system: SK-OV-3
[16] = system: UACC-257
[17] = system: NCI-H226
[18] = system: SNB-19
[19] = system: EKVX
[20] = system: CCRF-CEM
[21] = system: SF-539
[22] = system: CAKI-1
[23] = system: SK-MEL-5
[24] = system: SF-295
[25] = system: KM12
[26] = system: SR
[27] = system: LXFL 529
[28] = system: UACC-62
[29] = system: Hs-578T
[30] = system: MDA-MB-231
[31] = system: SNB-75
[32] = system: HT-29
[33] = system: HCT-116
[34] = system: KM-20L2
[35] = system: COLO 205
[36] = system: OVCAR-8
[37] = system: NCI-H23
[38] = system: HCC 2998
[39] = system: MDA-N
[40] = system: TK-10
[41] = system: SF-268
[42] = system: 786-0
[43] = system: Malme-3M
[44] = system: BT-549
[45] = system: M14
[46] = system: HCT-15
[47] = system: SN12C
[48] = system: K562
[49] = system: A498
[50] = system: HOP-62
[51] = system: DLD-1
[52] = system: HOP-92
[53] = system: NCI/ADR-RES
[54] = system: RPMI-8226
[55] = system: OVCAR-4
[56] = system: UO-31
[57] = system: XF498
[58] = system: SNB-78
[59] = system: HOP-18
[60] = system: DMS-273
[61] = system: DMS-114
[62] = system: MCF7
[63] = system: MOLT-4
[64] = system: IGROV-1
[65] = system: SW-620
[66] = system: A549
[67] = system: RXF 393
[68] = system: MDA-MB-435

For C=C1CC2(OC1=O)c1ccccc1CCc1ccccc12, which GI50 [1] is on record?
Its GI50 is 18.7 µM (inactive).

What about the GI50 [2] of the same compound?
Its GI50 is 1.71 µM (inactive).

And the GI50 [3]?
The GI50 was 0.729 µM (active).

What about the GI50 [4] of the same compound?
Its GI50 is 1.83 µM (inactive).

What about the GI50 [5] of the same compound?
Its GI50 is 1.89 µM (inactive).

And the GI50 [6]?
Its GI50 is 14.5 µM (inactive).

And the GI50 [7]?
Its GI50 is 14.3 µM (inactive).

And the GI50 [8]?
The GI50 was 1.71 µM (inactive).

And the GI50 [9]?
The GI50 was 2.07 µM (inactive).

And the GI50 [10]?
The GI50 was 1.81 µM (inactive).

And the GI50 [11]?
Its GI50 is 9.12 µM (inactive).

What about the GI50 [12] of the same compound?
Its GI50 is 1.46 µM (inactive).

What about the GI50 [13] of the same compound?
Its GI50 is 12.5 µM (inactive).

And the GI50 [14]?
Its GI50 is 5.62 µM (inactive).

What about the GI50 [15] of the same compound?
Its GI50 is 17.7 µM (inactive).

And the GI50 [16]?
Its GI50 is 3.82 µM (inactive).

And the GI50 [17]?
Its GI50 is 13.2 µM (inactive).

What about the GI50 [18] of the same compound?
The GI50 was 7.62 µM (inactive).

What about the GI50 [19] of the same compound?
Its GI50 is 7.38 µM (inactive).

What about the GI50 [20] of the same compound?
Its GI50 is 0.627 µM (active).

And the GI50 [21]?
Its GI50 is 2.13 µM (inactive).

What about the GI50 [22] of the same compound?
The GI50 was 1.75 µM (inactive).

What about the GI50 [23] of the same compound?
Its GI50 is 13.1 µM (inactive).

What about the GI50 [24] of the same compound?
Its GI50 is 16.1 µM (inactive).

And the GI50 [25]?
The GI50 was 3.61 µM (inactive).

What about the GI50 [26] of the same compound?
The GI50 was 0.497 µM (active).

What about the GI50 [27] of the same compound?
Its GI50 is 1.7 µM (inactive).

What about the GI50 [28] of the same compound?
Its GI50 is 6.4 µM (inactive).

What about the GI50 [29] of the same compound?
The GI50 was 1.94 µM (inactive).

And the GI50 [30]?
The GI50 was 9.27 µM (inactive).

And the GI50 [31]?
Its GI50 is 5.69 µM (inactive).

What about the GI50 [32] of the same compound?
The GI50 was 1.84 µM (inactive).

What about the GI50 [33] of the same compound?
The GI50 was 1.44 µM (inactive).

What about the GI50 [34] of the same compound?
The GI50 was 4.06 µM (inactive).

And the GI50 [35]?
Its GI50 is 1.91 µM (inactive).

What about the GI50 [36] of the same compound?
Its GI50 is 4.48 µM (inactive).

What about the GI50 [37] of the same compound?
Its GI50 is 9.95 µM (inactive).

And the GI50 [38]?
Its GI50 is 2.54 µM (inactive).

What about the GI50 [39] of the same compound?
Its GI50 is 1.8 µM (inactive).

What about the GI50 [40] of the same compound?
Its GI50 is 2.84 µM (inactive).

What about the GI50 [41] of the same compound?
Its GI50 is 1.93 µM (inactive).

What about the GI50 [42] of the same compound?
Its GI50 is 1.75 µM (inactive).

What about the GI50 [43] of the same compound?
Its GI50 is 1.94 µM (inactive).

What about the GI50 [44] of the same compound?
Its GI50 is 1.58 µM (inactive).

What about the GI50 [45] of the same compound?
Its GI50 is 1.97 µM (inactive).

What about the GI50 [46] of the same compound?
Its GI50 is 1.91 µM.

And the GI50 [47]?
Its GI50 is 2.52 µM (inactive).

What about the GI50 [48] of the same compound?
The GI50 was 1.71 µM (inactive).

And the GI50 [49]?
The GI50 was 25.8 µM (inactive).

And the GI50 [50]?
The GI50 was 26.1 µM (inactive).

And the GI50 [51]?
The GI50 was 1.83 µM (inactive).

And the GI50 [52]?
The GI50 was 1.72 µM (inactive).

And the GI50 [53]?
The GI50 was 1.63 µM (inactive).

And the GI50 [54]?
Its GI50 is 2.07 µM (inactive).

And the GI50 [55]?
The GI50 was 1.93 µM (inactive).

What about the GI50 [56] of the same compound?
The GI50 was 9.82 µM (inactive).

And the GI50 [57]?
Its GI50 is 2.41 µM (inactive).

What about the GI50 [58] of the same compound?
The GI50 was 2.18 µM (inactive).

And the GI50 [59]?
The GI50 was 1.97 µM (inactive).

What about the GI50 [60] of the same compound?
Its GI50 is 3.49 µM (inactive).

What about the GI50 [61] of the same compound?
Its GI50 is 1.85 µM (inactive).

And the GI50 [62]?
Its GI50 is 4.59 µM (inactive).

What about the GI50 [63] of the same compound?
The GI50 was 2.43 µM (inactive).

What about the GI50 [64] of the same compound?
Its GI50 is 7.23 µM (inactive).

And the GI50 [65]?
The GI50 was 1.59 µM (inactive).

And the GI50 [66]?
The GI50 was 8.26 µM (inactive).

And the GI50 [67]?
The GI50 was 1.66 µM (inactive).

And the GI50 [68]?
The GI50 was 2.48 µM (inactive).
